Reference: patent US10479786B2, “Protein kinase inhibitors” (Princeton Drug Discovery Inc, priority 2016, dated 2019)

Key:
FYN(isoform a) = molecular target: T1, FYN(isoform a) (Homo sapiens, UniProt P06241); assay: Off-chip Mobility Shift Assay, kinase inhibition; format: biochemical; settings: at 10 nM; recombinant FYN(isoform a)
T1 construct: purchased Carna Biosciences, Inc

[1] = Metabolic stability in human liver microsomes; format: in vitro ADME; settings: for In vitro t1/2: 1 μM, human liver microsomes 0.5 mg/mL, NADPH and UDPGA, 37° C.; for metabolic stability compared to dasatinib: human liver microsomes
Description: FIG. 1. Metabolic stability of compounds in human liver microsomal incubations. […] Concentrations at specified times were determined by LC-MS/MS.
The incubation reactions at various time points were quenched by adding 2× volumes of acetonitrile containing 100 nM reserpine. The quenched incubation samples were centrifuged at 4000 RPM for 10 min, and the supernatants injected for LC/MS/MS analysis. LC/MS/MS analysis was carried out on a AB Sciex 4000 Q Trap LC/MS/MS system coupled with Shimadzu Prominence UFLCXR 20 series (including a CBM-20A controller, two LC-20ADXR solvent delivery units, SIL-20AC HT autosampler, CTO-20A column oven, and a SPD-20A UV detector).

DDR2 = molecular target: T2, DDR2 (Homo sapiens, UniProt Q16832); assay: Off-chip Mobility Shift Assay, kinase inhibition; format: biochemical; settings: at 10 nM; recombinant DDR2; read-out: inhibition
T2 construct: purchased Carna Biosciences, Inc
T2 sequence (Q16832 22-855): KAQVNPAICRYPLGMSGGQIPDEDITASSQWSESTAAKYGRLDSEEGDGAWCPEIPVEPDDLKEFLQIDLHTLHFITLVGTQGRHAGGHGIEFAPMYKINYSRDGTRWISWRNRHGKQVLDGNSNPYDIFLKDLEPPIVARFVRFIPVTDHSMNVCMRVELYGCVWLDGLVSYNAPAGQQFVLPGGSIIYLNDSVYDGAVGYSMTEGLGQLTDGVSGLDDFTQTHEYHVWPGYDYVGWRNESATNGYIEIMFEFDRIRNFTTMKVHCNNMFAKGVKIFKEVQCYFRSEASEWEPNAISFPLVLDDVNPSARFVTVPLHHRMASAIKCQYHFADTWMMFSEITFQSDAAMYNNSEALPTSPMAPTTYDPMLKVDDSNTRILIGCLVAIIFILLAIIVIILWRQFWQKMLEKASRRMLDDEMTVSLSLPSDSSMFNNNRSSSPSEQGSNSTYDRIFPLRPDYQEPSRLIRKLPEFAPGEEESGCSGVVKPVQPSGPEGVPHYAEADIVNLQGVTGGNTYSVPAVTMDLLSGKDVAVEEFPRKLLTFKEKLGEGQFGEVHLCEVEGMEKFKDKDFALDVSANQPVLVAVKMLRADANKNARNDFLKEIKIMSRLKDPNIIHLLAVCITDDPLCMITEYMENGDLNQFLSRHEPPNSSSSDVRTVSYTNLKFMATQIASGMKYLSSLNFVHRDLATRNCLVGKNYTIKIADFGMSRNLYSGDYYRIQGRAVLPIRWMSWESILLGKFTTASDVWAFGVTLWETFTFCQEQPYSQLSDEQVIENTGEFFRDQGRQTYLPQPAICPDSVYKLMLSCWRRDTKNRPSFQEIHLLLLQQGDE

[2] = tested on: battery of selected protein kinases; assay: In vitro screen of a battery of selected protein kinases (summary statement); format: biochemical; settings: BTK, BMX, ABL, ABL(E255K), SRC, ACK, ARG, BLK, DDR2, EPHA, FGR, FMS, FRK, FYN, HCK, LCK, LYN, PDGFRα, PDGFRβ, YES, PIK3CA/PIK3R1, among others
SRC = molecular target: T3, SRC (Homo sapiens, UniProt P12931); assay: Off-chip Mobility Shift Assay, kinase inhibition; format: biochemical; settings: recombinant SRC; for inhibition at 0.001 µM: at 1 nM; for inhibition at 0.01 µM: at 10 nM
T3 construct: purchased Carna Biosciences, Inc
T3 sequence (P12931 whole entry): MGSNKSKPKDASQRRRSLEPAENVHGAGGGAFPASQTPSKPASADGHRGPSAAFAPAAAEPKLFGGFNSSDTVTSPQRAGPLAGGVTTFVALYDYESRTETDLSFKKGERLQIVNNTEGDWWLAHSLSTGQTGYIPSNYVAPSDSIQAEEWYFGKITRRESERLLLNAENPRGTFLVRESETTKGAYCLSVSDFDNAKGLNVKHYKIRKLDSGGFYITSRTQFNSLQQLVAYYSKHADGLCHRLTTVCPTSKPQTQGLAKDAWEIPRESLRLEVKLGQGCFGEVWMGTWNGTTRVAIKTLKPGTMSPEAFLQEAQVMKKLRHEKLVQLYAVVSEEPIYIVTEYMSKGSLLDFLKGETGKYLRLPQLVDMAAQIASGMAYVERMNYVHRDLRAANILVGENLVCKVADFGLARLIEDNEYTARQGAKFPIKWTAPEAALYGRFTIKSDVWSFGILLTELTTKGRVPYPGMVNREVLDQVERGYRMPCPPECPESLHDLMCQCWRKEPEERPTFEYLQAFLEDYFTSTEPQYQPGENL

[3] = Pharmacokinetics in Sprague-Dawley rats, 2-in-1 dosing; format: in vivo; settings: rat; for V: intravenous 1 mg/kg
Description: Sprague-Dawley rats (approximate weight 275-300 g, N=3) were dosed intravenously at 5 mL/kg and orally at 10 mL/kg with the above dosing solutions. Blood samples were collected into tubes containing EDTA as the anticoagulant at 0, 0.25 (intravenous only), 0.5, 1, 2, 4, 8, 10, and 24 h post-dosing, and plasma samples were prepared by centrifugation. The plasma samples were mixed with 3× volumes of acetonitrile containing 100 nM reserpine as the internal standard, and centrifuged at 4000 RPM for 15 min. The supernatants were injected for LC/MS analysis which were carried out on a AB Sciex 4000 Q Trap LC/MS/MS system coupled with Shimadzu Prominence UFLCXR 20 series (including a CBM-20A controller, two LC-20ADXR solvent delivery units, SIL-20AC HT autosampler, CTO-20A column oven, and a SPD-20A UV detector). The samples were separated on a Phenomenex Columbus column (C18, 4 μm, 50×2 mm) eluted with two solvent systems: 2 mM ammonium acetate in water containing 0.1% formic acid (A) and methanol (B) at a linear gradient starting with 25% B. Electrospray ionization in positive mode was used to acquire LC/MS/MS data.

HCK = molecular target: T4, HCK (Homo sapiens, UniProt P08631); assay: Off-chip Mobility Shift Assay, kinase inhibition; format: biochemical; settings: recombinant HCK; for inhibition at 0.001 µM: at 1 nM; for inhibition at 0.01 µM: at 10 nM, read-out: inhibition
T4 construct: purchased Carna Biosciences, Inc
T4 sequence (P08631 whole entry): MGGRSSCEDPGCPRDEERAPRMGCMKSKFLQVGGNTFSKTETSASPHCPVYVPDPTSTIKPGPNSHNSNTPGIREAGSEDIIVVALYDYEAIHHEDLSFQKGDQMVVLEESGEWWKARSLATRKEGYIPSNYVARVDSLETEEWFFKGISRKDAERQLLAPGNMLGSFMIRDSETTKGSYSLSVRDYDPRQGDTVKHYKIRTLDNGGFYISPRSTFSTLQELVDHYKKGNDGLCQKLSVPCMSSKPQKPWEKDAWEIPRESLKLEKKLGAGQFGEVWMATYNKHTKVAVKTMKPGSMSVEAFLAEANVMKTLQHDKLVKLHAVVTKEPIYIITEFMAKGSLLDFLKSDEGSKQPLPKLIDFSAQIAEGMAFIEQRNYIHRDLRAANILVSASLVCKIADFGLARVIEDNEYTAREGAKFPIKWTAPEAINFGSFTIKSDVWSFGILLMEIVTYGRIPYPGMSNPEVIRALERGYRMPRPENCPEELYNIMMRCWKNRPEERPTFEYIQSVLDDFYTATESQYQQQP

BLK = molecular target: T5, BLK (Homo sapiens, UniProt P51451); assay: Off-chip Mobility Shift Assay, kinase inhibition; format: biochemical; settings: at 10 nM; recombinant BLK
T5 construct: purchased Carna Biosciences, Inc
T5 sequence (P51451 whole entry): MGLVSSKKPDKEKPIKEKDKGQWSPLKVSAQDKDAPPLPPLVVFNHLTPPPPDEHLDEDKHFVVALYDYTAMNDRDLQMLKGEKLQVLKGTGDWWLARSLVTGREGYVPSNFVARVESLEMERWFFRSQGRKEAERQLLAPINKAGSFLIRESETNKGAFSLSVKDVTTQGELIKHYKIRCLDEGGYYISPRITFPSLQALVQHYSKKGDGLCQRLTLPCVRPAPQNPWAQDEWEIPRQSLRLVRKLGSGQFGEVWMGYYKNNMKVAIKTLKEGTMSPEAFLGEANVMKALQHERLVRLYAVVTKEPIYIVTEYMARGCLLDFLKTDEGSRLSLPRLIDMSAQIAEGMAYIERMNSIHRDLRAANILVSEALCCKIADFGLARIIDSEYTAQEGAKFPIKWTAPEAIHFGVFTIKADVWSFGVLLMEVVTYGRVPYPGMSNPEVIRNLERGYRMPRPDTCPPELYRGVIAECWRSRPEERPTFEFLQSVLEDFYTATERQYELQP

TEC = molecular target: T6, TEC (Homo sapiens, UniProt P42680); assay: Off-chip Mobility Shift Assay, kinase inhibition; format: biochemical; settings: at 1 nM; recombinant TEC
T6 construct: purchased Carna Biosciences, Inc
T6 sequence (P42680 1-631): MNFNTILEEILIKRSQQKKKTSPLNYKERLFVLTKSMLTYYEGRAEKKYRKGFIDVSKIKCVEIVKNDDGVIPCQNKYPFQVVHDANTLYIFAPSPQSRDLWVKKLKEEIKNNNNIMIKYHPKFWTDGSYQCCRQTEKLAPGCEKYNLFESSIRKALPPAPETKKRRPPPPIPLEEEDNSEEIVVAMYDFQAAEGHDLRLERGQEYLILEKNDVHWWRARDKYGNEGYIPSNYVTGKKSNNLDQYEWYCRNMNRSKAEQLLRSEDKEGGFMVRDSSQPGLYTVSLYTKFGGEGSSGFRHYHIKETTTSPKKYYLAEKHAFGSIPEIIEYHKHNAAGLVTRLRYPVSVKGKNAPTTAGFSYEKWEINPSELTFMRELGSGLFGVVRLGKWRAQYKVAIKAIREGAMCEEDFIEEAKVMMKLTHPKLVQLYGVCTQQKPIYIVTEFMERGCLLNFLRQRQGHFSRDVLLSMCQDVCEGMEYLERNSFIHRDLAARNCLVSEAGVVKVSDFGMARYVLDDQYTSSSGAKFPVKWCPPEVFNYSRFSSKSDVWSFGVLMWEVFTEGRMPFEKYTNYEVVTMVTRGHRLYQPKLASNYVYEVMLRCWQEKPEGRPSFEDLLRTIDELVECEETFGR

ARG = molecular target: T7, ARG (Homo sapiens, UniProt P42684); assay: Off-chip Mobility Shift Assay, kinase inhibition; format: biochemical; settings: at 10 nM; recombinant ARG; read-out: inhibition
T7 construct: purchased Carna Biosciences, Inc
T7 sequence (P42684 whole entry): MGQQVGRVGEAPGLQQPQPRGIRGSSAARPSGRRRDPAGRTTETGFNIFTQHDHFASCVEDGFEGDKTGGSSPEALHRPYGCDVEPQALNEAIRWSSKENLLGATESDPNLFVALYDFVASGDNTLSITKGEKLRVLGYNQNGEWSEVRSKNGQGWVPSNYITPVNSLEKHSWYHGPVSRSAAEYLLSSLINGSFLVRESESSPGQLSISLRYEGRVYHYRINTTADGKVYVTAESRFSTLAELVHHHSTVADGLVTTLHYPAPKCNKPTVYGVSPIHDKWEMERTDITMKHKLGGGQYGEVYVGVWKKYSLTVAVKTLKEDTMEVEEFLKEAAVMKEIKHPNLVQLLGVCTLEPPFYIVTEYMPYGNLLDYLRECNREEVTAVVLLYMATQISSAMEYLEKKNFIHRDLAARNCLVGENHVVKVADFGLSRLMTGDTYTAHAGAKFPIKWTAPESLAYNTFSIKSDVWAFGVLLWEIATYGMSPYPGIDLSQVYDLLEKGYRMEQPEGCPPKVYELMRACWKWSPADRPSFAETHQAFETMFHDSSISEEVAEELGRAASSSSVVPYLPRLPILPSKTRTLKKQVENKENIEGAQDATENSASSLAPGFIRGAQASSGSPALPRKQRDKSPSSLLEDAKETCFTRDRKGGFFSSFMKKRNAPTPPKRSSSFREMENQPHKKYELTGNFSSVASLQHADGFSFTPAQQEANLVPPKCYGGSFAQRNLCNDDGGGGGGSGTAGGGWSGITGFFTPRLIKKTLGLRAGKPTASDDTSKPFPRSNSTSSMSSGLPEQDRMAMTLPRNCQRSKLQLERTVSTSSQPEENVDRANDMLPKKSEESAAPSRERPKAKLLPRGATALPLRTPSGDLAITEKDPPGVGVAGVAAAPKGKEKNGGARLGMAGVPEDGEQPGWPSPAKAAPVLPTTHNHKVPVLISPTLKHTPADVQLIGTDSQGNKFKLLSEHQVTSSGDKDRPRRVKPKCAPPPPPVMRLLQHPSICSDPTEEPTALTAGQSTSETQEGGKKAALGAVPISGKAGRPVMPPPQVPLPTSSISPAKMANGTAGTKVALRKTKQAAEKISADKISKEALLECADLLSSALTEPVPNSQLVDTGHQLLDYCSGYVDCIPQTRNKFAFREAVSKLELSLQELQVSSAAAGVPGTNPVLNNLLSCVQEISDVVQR

[4] = Table 2, co-dosed with compound IV
[5] = Table 3, co-dosed with compound X

T1 sequence (P06241 whole entry, canonical isoform): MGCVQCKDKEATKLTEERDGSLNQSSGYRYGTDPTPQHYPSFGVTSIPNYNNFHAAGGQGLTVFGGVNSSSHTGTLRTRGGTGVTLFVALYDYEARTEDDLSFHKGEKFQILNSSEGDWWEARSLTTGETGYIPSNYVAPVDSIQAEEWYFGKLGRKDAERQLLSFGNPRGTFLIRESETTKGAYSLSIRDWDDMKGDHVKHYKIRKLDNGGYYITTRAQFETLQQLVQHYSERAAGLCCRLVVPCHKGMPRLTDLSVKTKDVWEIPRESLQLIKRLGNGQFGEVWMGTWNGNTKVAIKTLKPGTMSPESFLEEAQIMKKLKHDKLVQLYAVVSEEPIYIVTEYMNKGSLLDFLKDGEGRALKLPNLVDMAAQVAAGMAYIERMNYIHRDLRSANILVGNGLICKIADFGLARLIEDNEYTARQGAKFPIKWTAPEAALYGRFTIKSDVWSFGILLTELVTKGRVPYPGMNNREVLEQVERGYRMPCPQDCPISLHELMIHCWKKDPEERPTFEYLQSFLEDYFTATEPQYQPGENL

Row | Structure (SMILES) | inhibition at 0.01 µM (FYN(isoform a)) [%] | In vitro t1/2 [1] [h] | metabolic stability compared to dasatinib [1] | inhibition at 0.01 µM (DDR2) [%] | activity to inhibit kinases [2] | inhibition at 0.001 µM (SRC) [%] | inhibition at 0.01 µM (SRC) [%] | intravenous plasma clearance compared to dasatinib and compound III [3] | intravenous volume of distribution compared to dasatinib and compound III [3] | V [3, 4] [L/kg] | inhibition at 0.001 µM (HCK) [%] | inhibition at 0.01 µM (HCK) [%] | inhibition at 0.01 µM (BLK) [%] | inhibition at 0.001 µM (TEC) [%] | inhibition at 0.01 µM (ARG) [%] | F, percent oral bioavailability ([3]; PO 5 mg/kg versus intravenous 1 mg/kg, AUCinf dose normalized, Table 3) [%] | V [3, 5] [L/kg]
1 | [2H]c1cc(C)c(NC(=O)c2cnc(Nc3cc(N4CC[C@H](O)C4)nc(C)n3)s2)c(Cl)c1 [Compound IV, N-(2-chloro-4-deutero-6-methylphenyl)-2-[[2-methyl-6-((S)-3-hydroxypyrrolidin-1-yl)pyrimidin-4-yl]amino]thiazole-5-carboxamide] | > 50 | 1.47 | significantly greater stability | > 50 | potent activity | > 50 | > 50 | much lower intravenous plasma clearance | significantly lower intravenous volume of distribution values | 1 ± 0 | > 50 | > 50 | > 50 | > 50 | > 50 |  | 
2 | Cc1nc(Nc2ncc(C(=O)Nc3c(C)cccc3Cl)s2)cc(N2CC[C@H](O)C2)n1 [Compound X, N-(2-chloro-6-methylphenyl)-2-[[2-methyl-6-((S)-3-hydroxypyrrolidin-1-yl)pyrimidin-4-yl]amino]thiazole-5-carboxamide] | > 50 | 1.45 | significantly greater stability | > 50 | potent activity | > 50 | > 50 | much lower intravenous plasma clearance | significantly lower intravenous volume of distribution values |  | > 50 | > 50 | > 50 | > 50 | > 50 | 18.9±2 | 1 ± 0
3 | [2H]c1cc(C)c(NC(=O)c2cnc(Nc3cc(N4CC[C@@H](O)C4)nc(C)n3)s2)c(Cl)c1 [Compound V, N-(2-chloro-4-deutero-6-methylphenyl)-2-[[2-methyl-6-((R)-3-hydroxypyrrolidin-1-yl)pyrimidin-4-yl]amino]thiazole-5-carboxamide] | > 50 | 1.12 | significantly greater stability | > 50 | potent activity | > 50 | > 50 | much lower intravenous plasma clearance | significantly lower intravenous volume of distribution values | 1 ± 0 | > 50 | > 50 | > 50 | > 50 | > 50 |  | 
4 | Cc1nc(Nc2ncc(C(=O)Nc3c(C)cccc3Cl)s2)cc(N2CC[C@@H](O)C2)n1 [Compound XI, N-(2-chloro-6-methylphenyl)-2-[[2-methyl-6-((R)-3-hydroxypyrrolidin-1-yl)pyrimidin-4-yl]amino]thiazole-5-carboxamide] | > 50 | 0.983 | significantly greater stability | > 50 | potent activity | > 50 | > 50 | much lower intravenous plasma clearance | significantly lower intravenous volume of distribution values |  | > 50 | > 50 | > 50 | > 50 | > 50 |  | 1 ± 0
